Assay results: ChEMBL document CHEMBL2057081, “Triterpenoid saponins from Xanthoceras sorbifolia Bunge and their inhibitory activity on human cancer cell lines” (Bioorg Med Chem Lett, 2012)

Tests used:
Format in all cases: functional, cell-based
PC-3 = assay: Cytotoxicity against human PC3 cells by MTT assay
[1] = Cytotoxicity against human A375-S2 cells by MTT assay
HeLa = assay: Cytotoxicity against human HeLa cells by MTT assay
A549 = assay: Cytotoxicity against human A549 cells by MTT assay
HT-1080 = assay: Cytotoxicity against human HT1080 cells by MTT assay
HEp-2 = assay: Cytotoxicity against human Hep2 cells by MTT assay
HepG2 = assay: Cytotoxicity against human HepG2 cells by MTT assay
[2] = Cytotoxicity against human MDA231 cells by MTT assay; details: MDA-MB-231
MCF7 = assay: Cytotoxicity against human MCF7 cells by MTT assay
BGC-823 = assay: Cytotoxicity against human BGC823 cells by MTT assay

C/C=C(/C)C(=O)O[C@@H]1[C@@H](O)[C@H](O[C@H]2[C@H](OC(C)=O)[C@]3(CO)[C@H](O)C[C@]4(C)C(=CC[C@@H]5[C@@]6(C)CC[C@H](O[C@@H]7O[C@H](C(=O)O)[C@@H](O)[C@H](O)[C@H]7O[C@@H]7O[C@H](CO)[C@@H](O)[C@H](O)[C@H]7O)[C@](C)(CO)[C@@H]6CC[C@]54C)[C@@H]3CC2(C)C)O[C@H](C)[C@@H]1OC(C)=O [BUNKANKASAPONIN A]
IC50 (PC-3): 13.1 µM | IC50 [1]: 18.1 µM | IC50 (HeLa): 22.2 µM | IC50 (A549): 41 µM | IC50 (HT-1080): 16.3 µM | IC50 (HEp-2): 17.6 µM | IC50 (HepG2): 22.2 µM | IC50 [2]: 12.2 µM | IC50 (MCF7): 12.7 µM | IC50 (BGC-823): 17.5 µM

C/C=C(/C)C(=O)O[C@@H]1[C@@H](O)[C@H](O[C@H]2[C@H](OC(C)=O)[C@]3(CO)[C@H](O)C[C@]4(C)C(=CC[C@@H]5[C@@]6(C)CC[C@H](O[C@@H]7O[C@H](C(=O)O)[C@@H](O)[C@H](O)[C@H]7O[C@@H]7O[C@H](CO)[C@@H](O)[C@H](O)[C@H]7O)[C@](C)(CO)[C@@H]6CC[C@]54C)[C@@H]3CC2(C)C)O[C@H](C)[C@@H]1OC(=O)/C(C)=C\C [BUNKANKASAPONIN B]
IC50 (PC-3): 2.58 µM | IC50 [1]: 4.14 µM | IC50 (HeLa): 4.03 µM | IC50 (A549): 3.03 µM | IC50 (HT-1080): 1.14 µM | IC50 (HEp-2): 4.72 µM | IC50 (HepG2): 4.03 µM | IC50 [2]: 2.22 µM | IC50 (MCF7): 2.46 µM | IC50 (BGC-823): 2.5 µM

C/C=C(/C)C(=O)O[C@@H]1[C@@H](O)[C@H](O[C@H]2[C@H](O)[C@]3(COC(C)=O)[C@H](O)C[C@]4(C)C(=CC[C@@H]5[C@@]6(C)CC[C@H](O[C@@H]7O[C@H](C(=O)O)[C@@H](O)[C@H](O)[C@H]7O[C@@H]7O[C@H](CO)[C@@H](O)[C@H](O)[C@H]7O)[C@](C)(CO)[C@@H]6CC[C@]54C)[C@@H]3CC2(C)C)O[C@H](C)[C@@H]1OC(C)=O [BUNKANKASAPONIN C]
IC50 (PC-3): 92.5 µM | IC50 [1]: 23.3 µM | IC50 (HeLa): > 100 µM | IC50 (A549): 76.8 µM | IC50 (HT-1080): > 100 µM | IC50 (HEp-2): > 100 µM | IC50 (HepG2): 60.8 µM | IC50 [2]: 45.1 µM | IC50 (MCF7): 91.4 µM | IC50 (BGC-823): 82.6 µM

C/C=C(/C)C(=O)O[C@@H]1[C@@H](O)[C@H](O[C@H]2[C@H](O)[C@]3(COC(C)=O)[C@H](O)C[C@]4(C)C(=CC[C@@H]5[C@@]6(C)CC[C@H](O[C@@H]7O[C@H](C(=O)O)[C@@H](O)[C@H](O)[C@H]7O[C@@H]7O[C@H](CO)[C@@H](O)[C@H](O)[C@H]7O)[C@](C)(CO)[C@@H]6CC[C@]54C)[C@@H]3CC2(C)C)O[C@H](C)[C@@H]1OC(=O)/C(C)=C\C [BUNKANKASAPONIN D]
IC50 (PC-3): 13.2 µM | IC50 [1]: 20.4 µM | IC50 (HeLa): 55.5 µM | IC50 (A549): 31.7 µM | IC50 (HT-1080): > 100 µM | IC50 (HEp-2): > 100 µM | IC50 (HepG2): 33.1 µM | IC50 [2]: 21.8 µM | IC50 (MCF7): 49.4 µM | IC50 (BGC-823): 23.9 µM

C/C=C(/C)C(=O)O[C@@H]1[C@@H](O)[C@H](O[C@H]2[C@H](OC(C)=O)[C@]3(CO)[C@H](O)C[C@]4(C)C(=CC[C@@H]5[C@@]6(C)CC[C@H](O[C@@H]7O[C@H](C(=O)O)[C@@H](O)[C@H](O)[C@H]7O[C@@H]7O[C@H](CO)[C@@H](O)[C@H](O)[C@H]7O)C(C)(C)[C@@H]6CC[C@]54C)[C@@H]3CC2(C)C)O[C@H](C)[C@@H]1OC(=O)/C(C)=C\C [BUNKANKASAPONIN F]
IC50 (PC-3): 2.28 µM | IC50 [1]: 5.22 µM | IC50 (HeLa): 4.97 µM | IC50 (A549): 5.76 µM | IC50 (HT-1080): 1.75 µM | IC50 (HEp-2): 4.97 µM | IC50 (HepG2): 2.45 µM | IC50 [2]: 3.24 µM | IC50 (MCF7): 4.3 µM | IC50 (BGC-823): 11.3 µM

O=c1[nH]cc(F)c(=O)[nH]1 [FLUOROURACIL]
IC50 (PC-3): 35.8 µM | IC50 [1]: 9.92 µM | IC50 (HeLa): 10.4 µM | IC50 (A549): 31.5 µM | IC50 (HT-1080): 3.06 µM | IC50 (HEp-2): 24.6 µM | IC50 (HepG2): 10.5 µM | IC50 [2]: 31.6 µM | IC50 (MCF7): 24.6 µM | IC50 (BGC-823): 15.7 µM

CC1(C)C[C@H]2C3=CC[C@@H]4[C@@]5(C)CC[C@H](O[C@@H]6O[C@H](CO[C@@H]7O[C@H](CO)[C@@H](O)[C@H](O)[C@H]7O)[C@@H](O)[C@H](O)[C@H]6O)C(C)(C)[C@@H]5CC[C@@]4(C)[C@]3(C)CC[C@@]2(CO[C@@H]2O[C@H](CO[C@@H]3O[C@H](CO)[C@@H](O)[C@H](O)[C@H]3O)[C@@H](O)[C@H](O)[C@H]2O[C@@H]2O[C@H](CO)[C@@H](O)[C@H](O)[C@H]2O)[C@@H](O)[C@@H]1O [SORBIFOLIASIDE A]
IC50 (PC-3): > 100 µM | IC50 [1]: > 100 µM | IC50 (HeLa): > 100 µM | IC50 (A549): > 100 µM | IC50 (HT-1080): > 100 µM | IC50 (HEp-2): > 100 µM | IC50 (HepG2): > 100 µM | IC50 [2]: > 100 µM | IC50 (MCF7): > 100 µM | IC50 (BGC-823): > 100 µM

CC1(C)C[C@H]2C3=CC[C@@H]4[C@@]5(C)CC[C@H](O[C@@H]6O[C@H](CO[C@@H]7O[C@H](CO)[C@@H](O)[C@H](O)[C@H]7O)[C@@H](O)[C@H](O)[C@H]6O)C(C)(C)[C@@H]5CC[C@@]4(C)[C@]3(C)CC(=O)[C@@]2(CO[C@@H]2O[C@H](CO[C@@H]3O[C@H](CO)[C@@H](O)[C@H](O)[C@H]3O)[C@@H](O)[C@H](O)[C@H]2O[C@@H]2O[C@H](CO)[C@@H](O)[C@H](O)[C@H]2O)[C@@H](O)[C@@H]1O [SORBIFOLIASIDE B]
IC50 (PC-3): > 100 µM | IC50 [1]: > 100 µM | IC50 (HeLa): > 100 µM | IC50 (A549): > 100 µM | IC50 (HT-1080): > 100 µM | IC50 (HEp-2): > 100 µM | IC50 (HepG2): > 100 µM | IC50 [2]: > 100 µM | IC50 (MCF7): > 100 µM | IC50 (BGC-823): > 100 µM

CC1(C)C[C@H]2C3=CC[C@@H]4[C@@]5(C)CC[C@H](O[C@@H]6O[C@H](CO[C@@H]7O[C@H](CO)[C@@H](O)[C@H](O)[C@H]7O)[C@@H](O)[C@H](O)[C@H]6O[C@@H]6O[C@H](CO)[C@@H](O)[C@H](O)[C@H]6O)C(C)(C)[C@@H]5CC[C@@]4(C)[C@]3(C)CC(=O)[C@@]2(CO[C@@H]2O[C@H](CO[C@@H]3O[C@H](CO)[C@@H](O)[C@H](O)[C@H]3O)[C@@H](O)[C@H](O)[C@H]2O)[C@@H](O)[C@@H]1O [SORBIFOLIASIDE C]
IC50 (PC-3): > 100 µM | IC50 [1]: > 100 µM | IC50 (HeLa): > 100 µM | IC50 (A549): > 100 µM | IC50 (HT-1080): > 100 µM | IC50 (HEp-2): > 100 µM | IC50 (HepG2): > 100 µM | IC50 [2]: > 100 µM | IC50 (MCF7): > 100 µM | IC50 (BGC-823): > 100 µM

C/C=C(/C)C(=O)O[C@@H]1[C@@H](O)[C@H](O[C@H]2CC[C@]3(C)[C@H]4CC=C5[C@@H]6CC(C)(C)[C@@H](O)[C@H](O)[C@]6(CO[C@@H]6O[C@H](CO[C@@H]7O[C@H](CO)[C@@H](O)[C@H](O)[C@H]7O)[C@@H](O)[C@H](O)[C@H]6O)CC[C@@]5(C)[C@]4(C)CC[C@H]3C2(C)C)O[C@H](CO[C@@H]2O[C@H](CO)[C@@H](O)[C@H](O)[C@H]2O)[C@H]1O [SORBIFOLIASIDE D]
IC50 (PC-3): > 100 µM | IC50 [1]: > 100 µM | IC50 (HeLa): > 100 µM | IC50 (A549): > 100 µM | IC50 (HT-1080): > 100 µM | IC50 (HEp-2): > 100 µM | IC50 (HepG2): > 100 µM | IC50 [2]: > 100 µM | IC50 (MCF7): > 100 µM | IC50 (BGC-823): > 100 µM

C/C=C(/C)C(=O)O[C@@H]1[C@@H](O)[C@H](O[C@H]2CC[C@]3(C)[C@H]4CC=C5[C@@H]6CC(C)(C)[C@@H](O)[C@H](O)[C@]6(CO[C@@H]6O[C@H](CO[C@@H]7O[C@H](CO)[C@@H](O)[C@H](O)[C@H]7O)[C@@H](O)[C@H](O)[C@H]6O)C(=O)C[C@@]5(C)[C@]4(C)CC[C@H]3C2(C)C)O[C@H](CO[C@@H]2O[C@H](CO)[C@@H](O)[C@H](O)[C@H]2O)[C@H]1O [SORBIFOLIASIDE E]
IC50 (PC-3): > 100 µM | IC50 [1]: > 100 µM | IC50 (HeLa): > 100 µM | IC50 (A549): > 100 µM | IC50 (HT-1080): > 100 µM | IC50 (HEp-2): > 100 µM | IC50 (HepG2): > 100 µM | IC50 [2]: > 100 µM | IC50 (MCF7): > 100 µM | IC50 (BGC-823): > 100 µM

C/C=C(/C)C(=O)O[C@@H]1[C@@H](O)[C@H](O[C@H]2CC[C@]3(C)[C@H]4CC=C5[C@@H]6CC(C)(C)[C@@H](O)[C@H](O)[C@]6(CO[C@@H]6O[C@H](CO[C@@H]7O[C@H](CO)[C@@H](O)[C@H](O)[C@H]7O)[C@@H](O)[C@H](O)[C@H]6O[C@@H]6O[C@H](CO)[C@@H](O)[C@H](O)[C@H]6O)CC[C@@]5(C)[C@]4(C)CC[C@H]3C2(C)C)O[C@H](CO[C@@H]2O[C@H](CO)[C@@H](O)[C@H](O)[C@H]2O)[C@H]1OC(C)=O [SORBIFOLIASIDE F]
IC50 (PC-3): > 100 µM | IC50 [1]: > 100 µM | IC50 (HeLa): > 100 µM | IC50 (A549): > 100 µM | IC50 (HT-1080): > 100 µM | IC50 (HEp-2): > 100 µM | IC50 (HepG2): > 100 µM | IC50 [2]: > 100 µM | IC50 (MCF7): > 100 µM | IC50 (BGC-823): > 100 µM

C[C@@H]1O[C@@H](O[C@H]2[C@H](OC[C@@]34CC[C@]5(C)C(=CC[C@@H]6[C@@]7(C)CC[C@H](O[C@@H]8O[C@H](CO[C@@H]9O[C@H](CO)[C@@H](O)[C@H](O)[C@H]9O)[C@@H](O)[C@H](O)[C@H]8O)C(C)(C)[C@@H]7CC[C@]65C)[C@@H]3CC(C)(C)[C@@H](O)[C@@H]4O)O[C@H](CO[C@@H]3O[C@H](CO)[C@@H](O)[C@H](O)[C@H]3O)[C@@H](O)[C@@H]2O)[C@H](O)[C@H](O)[C@H]1O [XANIFOLIA O54]
IC50 (PC-3): > 100 µM | IC50 [1]: > 100 µM | IC50 (HeLa): > 100 µM | IC50 (A549): > 100 µM | IC50 (HT-1080): > 100 µM | IC50 (HEp-2): > 100 µM | IC50 (HepG2): > 100 µM | IC50 [2]: > 100 µM | IC50 (MCF7): > 100 µM | IC50 (BGC-823): > 100 µM
